Data taken from paper PMC3402541, “Guanidylation and Tail Effects in Cationic Antimicrobial Lipopeptoids” (PLoS ONE, 2012).
≈ marks a conversion by molar mass, not a printed value. Where a SMILES comes first, the peptide text is derived from it. [ ]: non-standard residue; d: D form. The star is where a group is joined. Palmitoyl = CCCCCCCCCCCCCCCC(=O)*; Nlys = NCCCCNCC(=O)O

Experiments:
[1] = system: ovine erythrocytes; assay: Haemolytic assay; assay type: cell-based, sheep; details: ovine erythrocytes in Tris buffered saline, 30 minutes, absorbance of supernatant at 540 nm
Procedure, shortened: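 Washed sheep erythrocytes in Tris-buffered saline exposed to compound (50 μg/mL–1 mg/mL; final 4.08 x 10^8 cells/mL) for 30 min. After centrifugation, supernatant absorbance at 540 nm gave % haemolysis; 0.5% ammonium chloride as positive control.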

[2] = system: E. faecium ATCC 27270; assay type: cell-based; details: ATCC 27270, 24 h
Procedure, shortened: (§1)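 Lipopeptoids, from stocks at 512 µg/mL in water (DMSO where needed), were serially doubled in cation-adjusted Mueller-Hinton broth and inoculated to approximately 5 x 10^5 CFU/mL. MIC read after 24 hr at 37°C.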

[3] = system: A. baumannii CAN-ICU 63169; assay type: cell-based, Acinetobacter baumannii; details: CAN-ICU 63169, 24 h
Procedure, shortened: as §1

[4] = system: P.aeruginosa CAN-ICU 62308; assay type: cell-based, Pseudomonas aeruginosa; details: CAN-ICU 62308, 24 h
Procedure, shortened: as §1

[5] = system: P.aeruginosa ATCC 27853; assay type: cell-based, Pseudomonas aeruginosa; details: ATCC 27853, 24 h
Procedure, shortened: as §1

[6] = system: MRSA ATCC 33592; assay type: cell-based, methicillin-resistant S. aureus; details: ATCC 33592, 24 h
Procedure, shortened: as §1

[7] = system: K.pneumoniae ATCC 13883; assay type: cell-based, Klebsiella pneumoniae; details: ATCC 13883, 24 h
Procedure, shortened: as §1

[8] = system: S.aureus ATCC 29213; assay type: cell-based, Staphylococcus aureus; details: ATCC 29213, 24 h
Procedure, shortened: as §1

[9] = system: MRSE CAN-ICU 61589; assay type: cell-based, methicillin-resistant S. epidermidis; details: CAN-ICU 61589, 24 h
Procedure, shortened: as §1

[10] = system: E. faecalis ATCC 29212; assay type: cell-based, Enterococcus faecalis; details: ATCC 29212, 24 h
Procedure, shortened: as §1

[11] = system: MSSE 81388 CANWARD 2008; assay type: cell-based, methicillin-susceptible S. epidermidis; details: 24 h
Procedure, shortened: as §1

[12] = system: S. maltophilia CAN-ICU 62584; assay type: cell-based, Stenotrophomonas maltophilia; details: CAN-ICU 62584, 24 h
Procedure, shortened: as §1

[13] = system: S.pneumoniae ATCC 49619; assay type: cell-based, Streptococcus pneumoniae; details: ATCC 49619, 24 h
Procedure, shortened: as §1

[14] = system: E.coli CAN-ICU 63074; assay type: cell-based, Escherichia coli; details: CAN-ICU 63074, 24 h
Procedure, shortened: as §1

[15] = system: all three strains of E. coli; assay type: cell-based, Escherichia coli; details: 24 h
Procedure, shortened: (§2)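 Each strain, after two subcultures from frozen stock, was tested in glass tubes against doubling compound dilutions. Medium: cation-adjusted Mueller-Hinton broth; inoculum ~5 × 10^5 CFU/mL; 37°C, 24 hr.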

[16] = system: E.coli CAN-ICU 61714; assay type: cell-based, Escherichia coli; details: CAN-ICU 61714, 24 h
Procedure, shortened: as §1

[17] = system: E.coli ATCC 25922; assay type: cell-based, Escherichia coli; details: ATCC 25922, 24 h
Procedure, shortened: as §1

[18] = system: S. epidermidis; assay type: cell-based; details: 24 h
Procedure, shortened: as §2

SMILES: CCCCCCCCCCCCCCCC(=O)N(CCCCNC(=N)N)CC(=O)NCC(=O)N(CCCCNC(=N)N)CC(N)=O [C16-NhargGNharg]
- Percent haemolysis at 100µg/mL of compound [1]: 61.06%
- MIC E. faecium [2]: 16 µg/mL (≈ 24.5 µM)
- MIC E. faecium in the presence of 4% bovine serum albumin [2]: 512 µg/mL
- MIC A. baumannii [3]: 128 µg/mL (≈ 196 µM)
- MIC A. baumannii in the presence of 4% bovine serum albumin [3]: >512 µg/mL
- MIC P.aeruginosa [4]: 64 µg/mL (≈ 98 µM)
- MIC P.aeruginosa in the presence of 4% bovine serum albumin [4]: >512 µg/mL
- MIC P.aeruginosa [5]: 64 µg/mL (≈ 98 µM)
- MIC P.aeruginosa in the presence of 4% bovine serum albumin [5]: >512 µg/mL
- MIC MRSA [6]: 8 µg/mL (≈ 12.3 µM)
- MIC MRSA in the presence of 4% bovine serum albumin [6]: 512 µg/mL
- MIC K.pneumoniae [7]: 64 µg/mL (≈ 98 µM)
- MIC K.pneumoniae in the presence of 4% bovine serum albumin [7]: 512 µg/mL
- MIC S.aureus [8]: 8 µg/mL (≈ 12.3 µM)
- MIC S.aureus in the presence of 4% bovine serum albumin [8]: 512 µg/mL
- MIC MRSE [9]: 16 µg/mL (≈ 24.5 µM)
- MIC MRSE in the presence of 4% bovine serum albumin [9]: 512 µg/mL
- MIC E. faecalis [10]: 16 µg/mL (≈ 24.5 µM)
- MIC E. faecalis in the presence of 4% bovine serum albumin [10]: 512 µg/mL
- MIC MSSE [11]: 8 µg/mL (≈ 12.3 µM)
- MIC MSSE in the presence of 4% bovine serum albumin [11]: 512 µg/mL
- MIC S. maltophilia [12]: 64 µg/mL (≈ 98 µM)
- MIC S. maltophilia in the presence of 4% bovine serum albumin [12]: >512 µg/mL
- MIC S.pneumoniae [13]: 128 µg/mL (≈ 196 µM)
- MIC S.pneumoniae in the presence of 4% bovine serum albumin [13]: 512 µg/mL
- MIC E.coli [14]: 16 µg/mL (≈ 24.5 µM)
- MIC E.coli in the presence of 4% bovine serum albumin [14]: 512 µg/mL
- MIC against all three strains of E. coli [15]: 16 µg/mL
- MIC E.coli [16]: 16 µg/mL (≈ 24.5 µM)
- MIC E.coli in the presence of 4% bovine serum albumin [16]: 512 µg/mL
- MIC E.coli [17]: 16 µg/mL (≈ 24.5 µM)
- MIC E.coli in the presence of 4% bovine serum albumin [17]: 512 µg/mL

SMILES: CCCCCCCCCCCCCCCC(=O)N(CCCCN)CC(=O)NCC(=O)N(CCCCN)CC(N)=O [C16-NlysGNlys] (Palmitoyl-[Nlys]-Gly-[Nlys]-NH2)
- Percent haemolysis at 100µg/mL of compound [1]: 56.03%
- MIC E. faecium [2]: 16 µg/mL (≈ 28.1 µM)
- MIC E. faecium in the presence of 4% bovine serum albumin [2]: 512 µg/mL
- MIC A. baumannii [3]: 128 µg/mL (≈ 225 µM)
- MIC A. baumannii in the presence of 4% bovine serum albumin [3]: >512 µg/mL
- MIC P.aeruginosa [4]: 128 µg/mL (≈ 225 µM)
- MIC P.aeruginosa in the presence of 4% bovine serum albumin [4]: >512 µg/mL
- MIC P.aeruginosa [5]: 64 µg/mL (≈ 113 µM)
- MIC P.aeruginosa in the presence of 4% bovine serum albumin [5]: >512 µg/mL
- MIC MRSA [6]: 16 µg/mL (≈ 28.1 µM)
- MIC MRSA in the presence of 4% bovine serum albumin [6]: 512 µg/mL
- MIC K.pneumoniae [7]: 64 µg/mL (≈ 113 µM)
- MIC K.pneumoniae in the presence of 4% bovine serum albumin [7]: >512 µg/mL
- MIC S.aureus [8]: 8 µg/mL (≈ 14.1 µM)
- MIC S.aureus in the presence of 4% bovine serum albumin [8]: 512 µg/mL
- MIC MRSE [9]: 16 µg/mL (≈ 28.1 µM)
- MIC MRSE in the presence of 4% bovine serum albumin [9]: 512 µg/mL
- MIC E. faecalis [10]: 16 µg/mL (≈ 28.1 µM)
- MIC E. faecalis in the presence of 4% bovine serum albumin [10]: 512 µg/mL
- MIC MSSE [11]: 8 µg/mL (≈ 14.1 µM)
- MIC MSSE in the presence of 4% bovine serum albumin [11]: 512 µg/mL
- MIC S. maltophilia [12]: 128 µg/mL (≈ 225 µM)
- MIC S. maltophilia in the presence of 4% bovine serum albumin [12]: >512 µg/mL
- MIC S.pneumoniae [13]: 128 µg/mL (≈ 225 µM)
- MIC S.pneumoniae in the presence of 4% bovine serum albumin [13]: 512 µg/mL
- MIC E.coli [14]: 16 µg/mL (≈ 28.1 µM)
- MIC E.coli in the presence of 4% bovine serum albumin [14]: 512 µg/mL
- MIC against all three strains of E. coli [15]: 16 µg/mL
- MIC E.coli [16]: 16 µg/mL (≈ 28.1 µM)
- MIC E.coli in the presence of 4% bovine serum albumin [16]: 512 µg/mL
- MIC E.coli [17]: 16 µg/mL (≈ 28.1 µM)
- MIC E.coli in the presence of 4% bovine serum albumin [17]: 512 µg/mL

SMILES: CCCCCCCCCCCCCCCCCCCC(=O)N(CCCCN)CC(=O)N(CCCCN)CC(=O)N(CCCCN)CC(N)=O [C20-NlysNlysNlys]
- Percent haemolysis at 100µg/mL of compound [1]: 68.29%
- MIC against S. epidermidis with BSA [18]: 128 µg/mL
- MIC E. faecium [2]: 16 µg/mL (≈ 23 µM)
- MIC E. faecium in the presence of 4% bovine serum albumin [2]: 256 µg/mL
- MIC A. baumannii [3]: 64 µg/mL (≈ 91.9 µM)
- MIC A. baumannii in the presence of 4% bovine serum albumin [3]: 512 µg/mL
- MIC P.aeruginosa [4]: 64 µg/mL (≈ 91.9 µM)
- MIC P.aeruginosa in the presence of 4% bovine serum albumin [4]: 512 µg/mL
- MIC P.aeruginosa [5]: 128 µg/mL (≈ 184 µM)
- MIC P.aeruginosa in the presence of 4% bovine serum albumin [5]: 512 µg/mL
- MIC MRSA [6]: 16 µg/mL (≈ 23 µM)
- MIC MRSA in the presence of 4% bovine serum albumin [6]: 256 µg/mL
- MIC K.pneumoniae [7]: 64 µg/mL (≈ 91.9 µM)
- MIC K.pneumoniae in the presence of 4% bovine serum albumin [7]: 256 µg/mL
- MIC S.aureus [8]: 16 µg/mL (≈ 23 µM)
- MIC S.aureus in the presence of 4% bovine serum albumin [8]: 128 µg/mL
- MIC MRSE [9]: 8 µg/mL (≈ 11.5 µM)
- MIC MRSE in the presence of 4% bovine serum albumin [9]: 128 µg/mL
- MIC E. faecalis [10]: 16 µg/mL (≈ 23 µM)
- MIC E. faecalis in the presence of 4% bovine serum albumin [10]: 256 µg/mL
- MIC MSSE [11]: 8 µg/mL (≈ 11.5 µM)
- MIC MSSE in the presence of 4% bovine serum albumin [11]: 128 µg/mL
- MIC S. maltophilia [12]: 64 µg/mL (≈ 91.9 µM)
- MIC S. maltophilia in the presence of 4% bovine serum albumin [12]: 512 µg/mL
- MIC S.pneumoniae [13]: 64 µg/mL (≈ 91.9 µM)
- MIC S.pneumoniae in the presence of 4% bovine serum albumin [13]: 512 µg/mL
- MIC E.coli [14]: 32 µg/mL (≈ 46 µM)
- MIC E.coli in the presence of 4% bovine serum albumin [14]: 256 µg/mL
- MIC E.coli [16]: 32 µg/mL (≈ 46 µM)
- MIC E.coli in the presence of 4% bovine serum albumin [16]: 256 µg/mL
- MIC E.coli [17]: 32 µg/mL (≈ 46 µM)
- MIC E.coli in the presence of 4% bovine serum albumin [17]: 256 µg/mL
